Reference: article PMC11357992, “Non-invasive mapping of systemic neutrophil dynamics upon cardiovascular injury” (Nature Cardiovascular Research, 2023)
Several values for one entry are separate records, joined by “and”; a condition that tells them apart may be missing. Identical values can stand only once. Where no end group is shown, it is not given here. Side-chain parts run from the residue outwards. rhodamine‑labelled PEGylated perfluoro‑15‑crown‑5 ether nanoemulsion = not defined here; carboxyfluorescein = N-terminal fluorescence label (CF)

What was measured:
[1] = test system: infarcted heart; assay: Cardiac 19F MRI signal after MI (in vivo, time course, correlation with LGE); parameters: species or system mouse
Method: For labeling of neutrophils before MI, mice were anesthetized (1.5% isoflurane) and 1 mmol per kg BW PFCs were injected intravenously via the tail vein on 3 consecutive days. Induction of MI was essentially carried out as previously described. For inhibiting the egress of neutrophils from the bone marrow in a subset of experiments, a cocktail of neutralizing antibodies was injected i.p. 1 h before and 4 h after MI (CXCL1, CXCL2, G-CSF, GM-CSF, 50 µg each, Thermo Fisher). To generate neutropenic mice, 48 and 24 h before MI, 500 µg of the Ly6G-depletion antibody (BioXcell, clone 1A8) was injected i.p. in independent experiments.
All experiments were performed with a vertical 9.4 T Bruker AVANCE^III Wide Bore NMR spectrometer (Bruker) driven by ParaVision 5.1 and operating at frequencies of 400.21 MHz for ^1H measurements and 376.54 MHz for ^19F measurements using a Bruker microimaging unit, Micro2.5, with actively shielded gradient sets (1.5 T m^−1). Data were acquired using a 25-mm quadrature ^19F resonator with one channel tunable to both ^1H and ^19F. Mice were anesthetized with 1.5% isoflurane and kept at 37 °C. After acquisition of morphological ^1H images, the resonator was tuned to ^19F, and anatomically matching ^19F images were recorded essentially as described previously.
Images of mouse hearts were acquired in short-axis orientation using a retrospectively triggered fast low-angle shot cine sequence (IntragateFLASH, Bruker) as described previously. Thereafter, hearts were excised, washed and fixed with PFA for 3D high-resolution post-mortem MRI: ^1H FISP, TR = 4 ms, FOV = 1.00 × 1.00 × 1.00 cm³, matrix = 128 × 64 × 128, tAcq 151 min; ^19F RARE, TR = 2,500 ms, FOV = 1.00 × 1.00 × 1.00 cm³, matrix = 32 × 32 × 32, tAcq = 10 h.

[2] = test system: murine neutrophils; assay: ROS production of murine neutrophils after mNPPFC injection (dihydroethidium, UPLC); type: in vivo, mouse; settings: in the presence of the targeting PFCs
Method: […] per kg BW ^mNPPFCs or saline were injected i.v., and, 2 h later, neutrophils were isolated from the bone marrow, and extracellular ROS was measured in the cell supernatant by oxidation of dihydroethidium followed by UPLC analysis.
(§1) A total of 5 × 10^6 human neutrophils were incubated in 10 ml DMEM with or without 1 µg ml^−1 peptide or 50 µl ml^−1 emulsion. At distinct time points, cells were pelleted, and 1 ml of the supernatant was immediately frozen at −80 °C. Subsequently, the amount of ROS was determined by chemiluminescence analysis. […] After centrifugation, 80 µl supernatant was used to determine ROS by UPLC measurement (Waters Acquity Bio H-Class with 2475 FLD Detector). To this end, gradients A and B (0.1% trifluoroacetic acid in 1 l water and acetonitrile, respectively) at a flow rate of 0.26 ml min^−1 at 17 °C were used. Dihydroethidium was excited and detected at 480 nm and 580 nm, respectively.
Extended Data Fig. 9 Impact of ^mNPPFCs on murine neutrophils. a, Differentially expressed genes (DEGs) identified by bulk RNA sequencing of murine blood neutrophils after intravenous injection of ^mNPPFCs, ^ConPFCs or NaCl (Ctrl) as control. […] In total 25655 RNA transcripts were analyzed. b, Cell surface expression of CD11b, CD62L, CD63 on blood derived murine neutrophils after intravenous application of NaCl (Ctrl) or ^mNPPFCs. […]

[3] = test system: circulating lymphocytes, monocytes and neutrophils; assay: In vivo mNPPFC uptake by circulating immune cells 1 h after injection (Matrigel-LPS or PBS); parameters: species or system mouse; in vivo uptake by circulating lymphocytes, Ctrl, raw data / in vivo uptake by circulating lymphocytes, LPS, raw data / in vivo uptake by circulating monocytes, Ctrl, raw data / in vivo uptake by circulating monocytes, LPS, raw data / in vivo uptake by circulating neutrophils, Ctrl, raw data / in vivo uptake by circulating neutrophils, LPS, raw data: unit not given here
Method: To induce defined inflammatory foci, we adopted a recently developed model of localized subcutaneous inflammation. To this end, ice-cold Matrigel (Corning) was doped with LPS (1 µg µl^−1; Salmonella typhimurium, Sigma-Aldrich) and subcutaneously (s.c.) implanted into the neck of the mice. Twenty-four hours after implanting the plug, neutrophils were isolated from the blood and incubated ex vivo with ^mNPPFCs or ^ConPFCs. In separate experiments, 24 h after implantation, ^mNPPFCs or ^ConPFCs were injected intravenously, and immune cells were isolated from the blood. In further experiments, 1 d after plug injection, mice received 1 mmol per kg BW ^mNPPFCs, and, 24 h later, the bone marrow was analyzed by ^1H/^19F MRI. Thereafter, mice were killed, and neutrophils were isolated from the bone marrow for determination of cell numbers. In each case, immune cells were analyzed by flow cytometry.
Mice were kept in anesthesia (1.5% isoflurane) on a warming plate, and 1 mmol per kg BW ^mNPPFCs or ^ConPFCs were injected i.v. into the tail vein. One hour after injection, blood was collected from the vena cava, and immune cells were isolated. For in vivo uptake studies in the bone marrow, mice were treated as described above and killed 2 h later to isolate neutrophils from the bone marrow and analyzed by flow cytometry.

[4] = test system: human neutrophils; assay: ROS release of human neutrophils; type: cell-based; settings: for ROS release of human neutrophils, raw data (panel C): single samples #1-#3
Method: as §1

[5] = mouse, Ctrl (PBS), 1 h after injection, single animals #1-#5
[6] = mouse, Matrigel-LPS, 1 h after injection, single animals #1-#3

“mNPPFCs: PEGylated rhodamine-labeled perfluoro-15-crown-5 ether nanoemulsion (maleimide PFCs) coupled with murine neutrophil-specific peptide mNP (carboxyfluorescein-DFYKPMPNLRITGGGC([maleimide‑PEG2000‑DSPE-rhodamine‑labelled PEGylated perfluoro‑15‑crown‑5 ether nanoemulsion]); reading uncertain; also: printed as DFYKPMPNLRIT-GGG-C)” was tested, and the fluorine signal ([1]; cardiac 19F MRI after MI, paired with infarct size (correlation), panel A raw data, single animals) was 1143260.00 and 189700.00 and 404383.00 and 657147.00 and 1197310.00 and 718148.00, the “cardiac 19F signal, Sham” value ([1]; in vivo 19F MRI, Sham (substance not given), single animals) was 79451 and 78829 and 92374 and 48275 and 58581 and 66158 and the “cardiac 19F signal after MI” value ([1]; in vivo 19F MRI, mice with MI, panel C raw data, single animals) was 325890 and 570535 and 698329 and 580045 and 224755 and 325233 and 312147 and 344837 and 567674 and 107303 and 326458 and 189700 and 404383 and 657147 and 718148. For the same substance, the “cardiac 19F signal, 1h” value ([1]; time course after MI, 1h, panel B raw data, single animals #1-#6) was 153579.00 and 401063.98 and 321133.97 and 254881.37 and 314977.20 and 322448.95, the “cardiac 19F signal, 3h” value ([1]; time course after MI, 3h, single animals) was 445129.00 and 539772.19 and 408267.20 and 394516.08 and 617532.55 and the “cardiac 19F signal, 6h” value ([1]; time course after MI, 6h, single animals) was 643519.00 and 466668.95 and 433563.34 and 788134.14 and 582620.85. For the same substance, the “cardiac 19F signal, 24h” value ([1]; time course after MI, 24h, single animals) was 1143260.00 and 608391.86 and 841920.06 and 1092840.00 and 1200290.00 and 913025.41, the “cardiac 19F signal, 48h” value ([1]; time course after MI, 48h, single animals) was 563325.00 and 546371.63 and 835937.39 and 937854.02 and 656412.62 and the “cardiac 19F signal, 72h” value ([1]; time course after MI, 72h, single animals) was 589807.00 and 491276.01 and 1221090.00 and 1312800.00 and 804982.61. The “ROS production of murine neutrophils” value [2] was “unaltered”, the “incorporation into circulating neutrophils from LPS-challenged versus healthy mice” value ([3]; 1 h after intravenous application) was “much stronger” and the “in vivo uptake by circulating lymphocytes, Ctrl, raw data” value [3, 5] was 51.1 and 39.2 and 30.6 and 43.1 and 40.6. For the same substance, the “in vivo uptake by circulating monocytes, Ctrl, raw data” value [3, 5] was 176 and 127 and 129 and 184 and 145, the “in vivo uptake by circulating neutrophils, Ctrl, raw data” value [3, 5] was 400 and 394 and 676 and 677 and 545 and the “in vivo uptake by circulating lymphocytes, LPS, raw data” value [3, 6] was 38.8 and 38.9 and 26.2. The “in vivo uptake by circulating monocytes, LPS, raw data” value [3, 6] was 150 and 223 and 453 and the “in vivo uptake by circulating neutrophils, LPS, raw data” value [3, 6] was 3695 and 4794 and 6465.
In the case of “hNPPFCs: PEGylated rhodamine-labeled perfluorocarbon nanoemulsion coupled with human neutrophil-specific peptide hNP (carboxyfluorescein-DLVTSKLQVGGGC; also: C-terminal Cys coupled via maleimide-PEG2000-DSPE to rhodamine-labelled perfluorocarbon nanoemulsion)”, the “impact on human neutrophil ROS release” value ([4]; 1 µg ml^−1 peptide or 50 µl ml^−1 emulsion) is reported as “neither ^hNPPFCs nor the free peptide had any impact on human neutrophil ROS release”, the “ROS release of human neutrophils, raw data (panel C)” value (“ROS release of human neutrophils” for short) ([4]; time point 1) is reported as 1725.82 and 1480.41 and 1396.67 and the “ROS release of human neutrophils” value ([4]; time point 3) is reported as 1373.8 and 1515.29 and 1254.87. The “ROS release of human neutrophils” value ([4]; time point 6) was 2382.05 and 1474.31 and 1302.37 and the “ROS release of human neutrophils” value ([4]; time point 24) was 1643.61 and 1455.28.
